Experimental data taken from PMC7280082 (Acta Pharmaceutica Sinica. B, 2019).

Key:
[1] = test system: HIV-1 Y181C mutant strain; assay: microbe, parasite or virus in culture; assay type: cell-based; conditions: for SI Y181C: CC50/EC50; for EC50: Human immunodeficiency virus 1, MT4, read-out: EC50 Y181C; for RF Y181C: ratio of EC50 (resistant viral strain)/EC50 (wild-type viral strain)
[2] = test system: HIV-1 K103N mutant strain; assay: microbe, parasite or virus in culture; assay type: cell-based; conditions: for SI K103N: CC50/EC50; for EC50: Human immunodeficiency virus 1, MT4, read-out: EC50 K103N; for RF K103N: ratio of EC50 (resistant viral strain)/EC50 (wild-type viral strain)
WT HIV-1 RT = WT HIV-1 RT (Human immunodeficiency virus type 1 group M subtype B, UniProt P03366); assay: Recombinant HIV-1 RT inhibitory assay; assay type: biochemical
[3] = test system: HIV-1 Y188L mutant strain; assay: microbe, parasite or virus in culture; assay type: cell-based; conditions: for SI Y188L: CC50/EC50; for EC50: Human immunodeficiency virus 1, MT4, read-out: EC50 Y188L; for RF Y188L: ratio of EC50 (resistant viral strain)/EC50 (wild-type viral strain)
[4] = test system: HIV-1 F227L + V106A double-mutant strain; assay: microbe, parasite or virus in culture; assay type: cell-based; conditions: for SI F227L + V106A: CC50/EC50; for EC50: Human immunodeficiency virus 1, MT4, read-out: EC50 F227L + V106A; for RF F227L + V106A: ratio of EC50 (resistant viral strain)/EC50 (wild-type viral strain)
[5] = test system: HIV-1 E138K mutant strain; assay: microbe, parasite or virus in culture; assay type: cell-based; conditions: for SI E138K: CC50/EC50; for EC50: Human immunodeficiency virus 1, MT4, read-out: EC50 E138K; for RF E138K: ratio of EC50 (resistant viral strain)/EC50 (wild-type viral strain)
[6] = test system: HIV-1 L100I mutant strain; assay: microbe, parasite or virus in culture; assay type: cell-based; conditions: for SI L100I: CC50/EC50; for EC50: Human immunodeficiency virus 1, MT4, read-out: EC50 L100I; for RF L100I: ratio of EC50 (resistant viral strain)/EC50 (wild-type viral strain)
[7] = test system: HIV-1 RES056 (K103N + Y181C) double-mutant strain; assay: microbe, parasite or virus in culture; assay type: cell-based; conditions: for SI RES056: CC50/EC50; for EC50: Human immunodeficiency virus 1, MT4, read-out: EC50 RES056; for RF RES056: ratio of EC50 (resistant viral strain)/EC50 (wild-type viral strain)
[8] = Cytotoxicity in mock-infected MT-4 cell cultures, MTT method; conditions: human, mock-infected MT-4 cells
HIV-2 strain (ROD) = assay: Anti-HIV-2; assay type: cell-based; conditions: for EC50: Human immunodeficiency virus 2, MT4, read-out: EC50 ROD; for SI ROD: ratio of CC50/EC50
WT HIV-1 (IIIB) = assay: microbe, parasite or virus in culture; assay type: cell-based; conditions: for EC50: Human immunodeficiency virus 1, IIIB, MT4, read-out: EC50 IIIB; for SI IIIB: ratio of CC50/EC50

| SMILES | SI Y181C [1] | EC50 [1] [nM] | RF Y181C [1] | SI K103N [2] | EC50 [2] [nM] | RF K103N [2] | SI Y188L [3] | EC50 [3] [nM] | RF Y188L [3] | EC50 [4] [nM] | RF F227L + V106A [4] | EC50 [5] [nM] | RF E138K [5] | EC50 [6] [nM] | RF L100I [6] | EC50 [7] [nM] | RF RES056 [7] | CC50 at 5 days [8] [nM] | EC50 (HIV-2 strain (ROD)) [nM] | EC50 (WT HIV-1 (IIIB)) [nM] | other results |
| --- | --- | --- | --- | --- | --- | --- | --- | --- | --- | --- | --- | --- | --- | --- | --- | --- | --- | --- | --- | --- | --- |
| Cc1cc(-c2ccco2)cc(C)c1Oc1nc(NC2CCN(Cc3ccc(S(N)(=O)=O)cc3)CC2)nc2ccsc12 [Compound 11, 4-((4-((4-(4-(Furan-2-yl)-2,6-dimethylphenoxy)thieno[3,2-d]pyrimidin-2-yl)amino)piperidin-1-yl)methyl)benzenesulfonamide] | 213 | 63.5 ± 8.75 | 3.6 | 651 | 20.7 ± 2.75 | 1.2 | 253 | 53.4 ± 2.15 | 3.0 | 85.7 ± 9.71 | 4.8 | 49.9 ± 0.35 | 2.8 | 89.3 ± 23 | 5.0 | 565 ± 22.5 | 31.9 | 13500 ± 3940 | 4150 ± 1780 | 17.7 ± 4.83 | IC50 (WT HIV-1 RT): 243 ± 37 nM; SI F227L + V106A [4]: 158; SI E138K [5]: 271; SI L100I [6]: 151; SI RES056 [7]: 24; SI ROD (HIV-2 strain (ROD)): 3; SI IIIB (WT HIV-1 (IIIB)): 762 |
| Cc1cc(-c2ccco2)cc(C)c1Oc1nc(NC2CCN(Cc3ccc(C(N)=O)cc3)CC2)nc2ccsc12 [Compound 12, 4-((4-((4-(4-(Furan-2-yl)-2,6-dimethylphenoxy)thieno[3,2-d]pyrimidin-2-yl)amino)piperidin-1-yl)methyl)benzamide] | 57 | 511 ± 77.2 | 5.5 | 224 | 129 ± 5.87 | 1.4 | 94 | 307 ± 58.2 | 3.3 | 1110 ± 269 | 11.9 | 287 ± 4.98 | 3.1 | 414 ± 37.9 | 4.4 | 2900 ± 119 | 31.1 | 28900 ± 15600 | 25300 | 93.3 ± 82.8 | IC50 (WT HIV-1 RT): 901 ± 45 nM; SI F227L + V106A [4]: 26; SI E138K [5]: 101; SI L100I [6]: 70; SI RES056 [7]: 10; SI ROD (HIV-2 strain (ROD)): 1; SI IIIB (WT HIV-1 (IIIB)): 310 |
| Cc1cc(-c2ccoc2)cc(C)c1Oc1nc(NC2CCN(Cc3ccc(S(N)(=O)=O)cc3)CC2)nc2ccsc12 [Compound 13, 4-((4-((4-(4-(Furan-3-yl)-2,6-dimethylphenoxy)thieno[3,2-d]pyrimidin-2-yl)amino)piperidin-1-yl)methyl)benzenesulfonamide] | 79 | 197 ± 16.1 | 3.1 | 249 | 62.9 ± 10.4 | 1.0 | 117 | 133 ± 3.35 | 2.1 | 358 ± 18.4 | 5.6 | 193 ± 14.8 | 3.0 | 186 ± 29.4 | 2.9 | 1190 ± 184 | 18.8 | 15600 ± 4970 | 6800 ± 1220 | 63.6 ± 11.4 | IC50 (WT HIV-1 RT): 265 ± 59 nM; SI F227L + V106A [4]: 44; SI E138K [5]: 81; SI L100I [6]: 84; SI RES056 [7]: 13; SI ROD (HIV-2 strain (ROD)): 2; SI IIIB (WT HIV-1 (IIIB)): 246 |
| Cc1cc(-c2ccoc2)cc(C)c1Oc1nc(NC2CCN(Cc3ccc(C(N)=O)cc3)CC2)nc2ccsc12 [Compound 14, 4-((4-((4-(4-(Furan-3-yl)-2,6-dimethylphenoxy)thieno[3,2-d]pyrimidin-2-yl)amino)piperidin-1-yl)methyl)benzamide] | 88 | 180 ± 33.4 | 3.1 | 212 | 74.8 ± 2.93 | 1.3 | 71 | 222 ± 30.5 | 3.9 | 525 ± 21.1 | 9.1 | 177 ± 2.93 | 3.1 | 262 ± 75 | 4.6 | 813 ± 177 | 14.1 | 15800 ± 7040 | 3180 ± 832 | 57.5 ± 12.7 | IC50 (WT HIV-1 RT): 249 ± 1 nM; SI F227L + V106A [4]: 30; SI E138K [5]: 89; SI L100I [6]: 60; SI RES056 [7]: 19; SI ROD (HIV-2 strain (ROD)): 5; SI IIIB (WT HIV-1 (IIIB)): 275 |
| Cc1cc(-c2cccs2)cc(C)c1Oc1nc(NC2CCN(Cc3ccc(S(N)(=O)=O)cc3)CC2)nc2ccsc12 [Compound 15, 4-((4-((4-(2,6-Dimethyl-4-(thiophen-2-yl)phenoxy)thieno[3,2-d]pyrimidin-2-yl)amino)piperidin-1-yl)methyl)benzenesulfonamide] | 235 | 91.7 ± 18.2 | 1.9 | 932 | 23.1 ± 2.56 | 0.5 | 203 | 106 ± 43.6 | 2.1 | 56.7 ± 16.2 | 1.1 | 124 ± 88.7 | 2.5 | 97.9 ± 62.4 | 2.0 | 999 ± 151 | 20.2 | 21500 ± 890 | 5110 ± 1710 | 49.5 ± 14.8 | IC50 (WT HIV-1 RT): 227 ± 46 nM; SI F227L + V106A [4]: 380; SI E138K [5]: 173; SI L100I [6]: 220; SI RES056 [7]: 22; SI ROD (HIV-2 strain (ROD)): 4; SI IIIB (WT HIV-1 (IIIB)): 435 |
| Cc1cc(-c2cccs2)cc(C)c1Oc1nc(NC2CCN(Cc3ccc(C(N)=O)cc3)CC2)nc2ccsc12 [Compound 16, 4-((4-((4-(2,6-Dimethyl-4-(thiophen-2-yl)phenoxy)thieno[3,2-d]pyrimidin-2-yl)amino)piperidin-1-yl)methyl)benzamide] | ≥ 28 | 731 ± 198 | 3.6 | ≥ 111 | 184 ± 90.2 | 0.9 | ≥ 33 | 619 ± 3.59 | 3.0 | 1090 ± 226 | 5.4 | 662 ± 58.4 | 3.3 | 731 ± 274 | 3.6 | 10000 | 49.2 | ≥ 20500 | > 20500 | 203 ± 51.5 | IC50 (WT HIV-1 RT): 595 ± 44 nM; SI F227L + V106A [4]: ≥ 19; SI E138K [5]: ≥ 31; SI L100I [6]: ≥ 28; SI RES056 [7]: ≥ 2; SI IIIB (WT HIV-1 (IIIB)): ≥101 |
| Cc1cc(-c2ccsc2)cc(C)c1Oc1nc(NC2CCN(Cc3ccc(C(N)=O)cc3)CC2)nc2ccsc12 [Compound 18, 4-((4-((4-(2,6-Dimethyl-4-(thiophen-3-yl)phenoxy)thieno[3,2-d]pyrimidin-2-yl)amino)piperidin-1-yl)methyl)benzamide] | 23 | 741 ± 154 | 3.1 | 99 | 171 ± 56.9 | 0.7 | 27 | 628 ± 49.6 | 2.6 | 854 ± 186 | 3.6 | 739 ± 318 | 3.1 | 925 ± 286 | 3.8 | 4520 ± 1450 | 18.8 | 17000 ± 12900 | > 17000 | 240 ± 94.3 | SI F227L + V106A [4]: 20; SI E138K [5]: 23; SI L100I [6]: 18; SI RES056 [7]: 4; SI ROD (HIV-2 strain (ROD)): <1; SI IIIB (WT HIV-1 (IIIB)): 71 |
| O=C1Nc2ccc(Cl)cc2[C@@](C#CC2CC2)(C(F)(F)F)O1 [EFV, efavirenz, reference compound] | – | 6.33 ± 1.06 | – | – | 111 ± 35.4 | – | – | 306 ± 53.9 | – | 268 ± 48.7 | – | – | – | 46.5 ± 9.11 | – | – | – | > 6330 | > 5330 | 5.25 ± 1.98 | – |
| Cc1cc(C#N)cc(C)c1Oc1nc(Nc2ccc(C#N)cc2)nc(N)c1Br [ETR, Etravirine, reference compound] | – | 12.2 ± 2.63 | 2.4 | – | 3.13 ± 0.42 | 0.6 | – | 17.3 ± 5.53 | 3.5 | 14.2 ± 5.14 | 2.8 | 8.07 ± 2.52 | 1.6 | 6.35 ± 1.77 | 1.3 | 42.5 ± 15.1 | 8.4 | > 4590 | > 4590 | 5.03 ± 1.68 | – |
| Cc1ccnc2c1NC(=O)c1cccnc1N2C1CC1 [NVP, Nevirapine, reference compound] | – | > 9510 | NA (>51.1) | – | 7820 ± 556 | 42 | – | > 9510 | NA (>51) | > 9510 | NA (>51.1) | 115 ± 24.5 | 0.6 | 1400 ± 828 | 7.5 | > 9510 | NA (>51.1) | > 9510 | > 9510 | 186 ± 59 | – |
